For one assay, the target named is AnDar-D7L2 (Anopheles darlingi, UniProt B6DDQ8). Kind of assay: biochemical. The conditions noted are these: for fold difference in binding tightness, serotonin vs tryptamine: ratio of KD values. It counts as binding.
Another assay has as its target T1, AnAtr-D7L1 (Anopheles atroparvus, UniProt A0A182IRF8).
T1 sequence (A0A182IRF8 24-316): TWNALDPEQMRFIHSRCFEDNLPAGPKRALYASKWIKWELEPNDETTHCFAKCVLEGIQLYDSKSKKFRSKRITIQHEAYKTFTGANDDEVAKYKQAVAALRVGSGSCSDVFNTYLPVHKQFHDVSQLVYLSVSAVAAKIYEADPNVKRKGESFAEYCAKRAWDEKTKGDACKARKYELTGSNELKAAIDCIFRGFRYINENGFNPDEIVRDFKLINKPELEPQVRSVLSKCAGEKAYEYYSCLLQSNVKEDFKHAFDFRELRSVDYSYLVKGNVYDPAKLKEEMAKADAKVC
Kind of assay: ITC ligand binding to recombinant AnAtr-D7L1. The conditions noted are these: for binding observed by ITC (in words): 30°C, 4 μM protein, 40 μM ligand. On the technique in general: ITC needs no label: the signal is the heat of the interaction.

A further assay addresses An. gambiae D7L3 (Anopheles gambiae, UniProt A0A1S4HE90). The assay can be described thus: biochemical. It counts as binding.
The subject of a further assay is AnSt-D7L1. The conditions noted are these: ref Alvarenga et al., 2010; cited from earlier work.
The next assay concerns the target T2, AeD7S1 (Aedes aegypti, UniProt Q8T9T4).
T2 sequence (Q8T9T4 22-148): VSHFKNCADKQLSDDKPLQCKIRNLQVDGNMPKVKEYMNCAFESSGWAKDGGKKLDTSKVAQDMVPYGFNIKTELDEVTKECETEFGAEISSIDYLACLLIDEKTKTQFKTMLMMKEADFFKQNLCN
The assay can be described thus: ITC serotonin binding to recombinant AeD7S1. The settings on record: 30°C, 4 μM protein, 40 μM serotonin.

For the next assay, the target named is T3, D7CQS1 (Culex quinquefasciatus, UniProt Q6TS00).
T3 sequence (Q6TS00 19-161): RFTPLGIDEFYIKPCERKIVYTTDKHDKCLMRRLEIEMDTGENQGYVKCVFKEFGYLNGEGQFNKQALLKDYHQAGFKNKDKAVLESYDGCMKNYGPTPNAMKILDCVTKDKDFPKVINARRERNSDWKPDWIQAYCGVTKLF
Kind of assay: ITC serotonin binding to recombinant D7CQS1. The conditions noted are these: 30°C, 4 μM protein, 40 μM serotonin.

The next assay relates to Platelet-rich plasma. The assay can be described thus: Platelet aggregation assay in platelet-rich plasma. It counts as cell-based, human. The conditions noted are these: protein 0.6, 2 and 6 μM.

Read-outs that look alike come from different tables or passages of the source.

Chain of AnDar-D7L2 (B6DDQ8 21-317 limits assumed): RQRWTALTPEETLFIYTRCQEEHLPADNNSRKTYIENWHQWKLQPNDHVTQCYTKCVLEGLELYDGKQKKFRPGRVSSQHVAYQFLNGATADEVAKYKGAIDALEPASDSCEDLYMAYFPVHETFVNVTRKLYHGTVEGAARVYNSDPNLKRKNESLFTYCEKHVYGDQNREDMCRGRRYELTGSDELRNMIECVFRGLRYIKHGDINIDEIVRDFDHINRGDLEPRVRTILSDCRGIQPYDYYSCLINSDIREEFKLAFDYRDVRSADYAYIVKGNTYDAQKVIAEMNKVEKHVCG
Chain of An. gambiae D7L3 (A0A1S4HE90 27-354 limits assumed): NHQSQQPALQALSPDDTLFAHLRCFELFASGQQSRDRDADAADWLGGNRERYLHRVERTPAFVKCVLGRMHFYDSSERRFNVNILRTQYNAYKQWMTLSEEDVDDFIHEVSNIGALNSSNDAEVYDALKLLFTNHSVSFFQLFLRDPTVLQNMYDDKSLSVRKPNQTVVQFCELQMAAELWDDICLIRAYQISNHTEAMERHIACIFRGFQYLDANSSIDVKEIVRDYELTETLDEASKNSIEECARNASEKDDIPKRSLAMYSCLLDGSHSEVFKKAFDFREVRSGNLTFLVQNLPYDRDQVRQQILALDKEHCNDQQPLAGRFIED

On to `NCC(O)c1ccc(O)cc1` (racemic) [octopamine, (±)-octopamine], for which the “binding observed by ITC (in words)” value on AnDar-D7L2 (ITC, 30°C) is given as “measurable”.

`CCCCC[C@H](O)/C=C/C=C\C/C=C\C/C=C\CCCC(=O)O` [15-HETE]: at AnAtr-D7L1, the “binding observed by ITC (in words)” value was “No binding was detected”.

`Nc1ncnc2c1ncn2[C@@H]1O[C@H](COP(=O)(O)OP(=O)(O)O)[C@@H](O)[C@H]1O` [ADP]: the “binding observed by ITC (in words)” value is reported as “inability to bind” on AnDar-D7L2 (ITC, 30°C) and “none” at An. gambiae D7L3 (ITC, 30°C, 4 μM protein, 40 μM ligand).

On to `CCCCC/C=C\C[C@@H](O)/C=C/C=C/C=C\[C@@H](O)CCCC(=O)O` [LTB4], for which the “binding observed by ITC (in words)” value at AnDar-D7L2 is listed as “unable to bind”; at AnAtr-D7L1, “No binding was detected”.

For the molecule `CCCCC/C=C\C\C=C/C=C/C=C/[C@@H](SC[C@H](NC(=O)CC[C@H](N)C(=O)O)C(=O)NCC(=O)O)[C@@H](O)CCCC(=O)O` [LTC4], the “binding observed by ITC (in words)” value at AnDar-D7L2 is “high affinity”.

For `CCCCC/C=C\C\C=C/C=C/C=C/[C@@H](SC[C@H](N)C(=O)NCC(=O)O)[C@@H](O)CCCC(=O)O` [LTD4], the “binding observed by ITC (in words)” value at AnDar-D7L2 was “high affinity”.

Consider `CCCCC/C=C\C\C=C/C=C/C=C/[C@@H](SC[C@H](N)C(=O)O)[C@@H](O)CCCC(=O)O` [LTE4], for which the “binding observed by ITC (in words)” value on AnDar-D7L2 is “high affinity”.

Regarding `CCCCC[C@H](O)/C=C/[C@@H]1[C@@H](C/C=C\CCCC(=O)O)[C@@H](O)C[C@H]1O` [PGF2α], the “binding observed by ITC (in words)” value at AnAtr-D7L1 is recorded as “No binding was detected”.

For `CCCCC[C@H](O)/C=C/[C@@H]1[C@@H](C/C=C\CCCC(=O)O)[C@H]2CO[C@@H]1C2` [U46619], the “binding observed by ITC (in words)” value at AnDar-D7L2 is listed as “high affinity”; at AnAtr-D7L1, “does not bind”. In the assay on AnSt-D7L1, the “binding (in words)” value is “ability to bind”.

On to `NCCc1ccc(O)c(O)c1` [dopamine], for which the “binding observed by ITC (in words)” value at AnDar-D7L2 is on record as “measurable”.

Take `CNC[C@H](O)c1ccc(O)c(O)c1` [epinephrine]: the “binding observed by ITC (in words)” value at AnDar-D7L2 was “No detectable binding”.

As for `NCCc1c[nH]cn1` [histamine], the “binding observed by ITC (in words)” value at AnDar-D7L2 is reported as “No detectable binding”. Further, the affinity at An. gambiae D7L3, expressed as Kd, was 1530 nM.

With `NC[C@H](O)c1ccc(O)c(O)c1` [norepinephrine, L(+)-norepinephrine], the “binding observed by ITC (in words)” value on AnDar-D7L2 (ITC, 30°C) is on record as “measurable”. At An. gambiae D7L3, the Kd (as a rule, the equilibrium constant for the complex coming apart) is 2530 nM.

With `NCCc1c[nH]c2ccc(O)cc12` [serotonin], the Kd at AnDar-D7L2 is 17 nM; on AnAtr-D7L1 it was approximately 3 nM; on An. gambiae D7L3, 22 nM. The “fold difference in binding tightness, serotonin vs tryptamine” value on AnDar-D7L2 (ITC) turned out to be 30 fold. The “serotonin binding by ITC (in words)” value at AeD7S1 and at D7CQS1 was “Lack of serotonin binding” throughout. In the assay on AnSt-D7L1, the “binding (in words)” value is on record as “does not bind”.

Molecule `NCCc1c[nH]c2ccccc12` [tryptamine] showed a Kd on AnDar-D7L2 of 518 nM. In addition, the “fold difference in binding tightness, serotonin vs tryptamine” value at AnDar-D7L2 (ITC) came to 30 fold. The “binding observed by ITC (in words)” value on AnAtr-D7L1 was “equally high affinity”.

Consider “AnDar-D7L2: recombinant two-domain D7 long form salivary protein from Anopheles darlingi (EU934268.1)”, for which the “effect on ADP-induced platelet aggregation” value in the assay on Platelet-rich plasma (agonist ADP) is given as “did not inhibit”. Besides, in the assay with Platelet-rich plasma (agonist U46619), the “effect on platelet aggregation induced by U46619” value is “inhibits”. In the assay with Platelet-rich plasma (agonist arachidonic acid), the “effect on platelet aggregation induced by arachidonic acid (AA)” value is given as “inhibits”. Further, the “effect on epinephrine-induced platelet aggregation” value with Platelet-rich plasma (agonist epinephrine) is given as “did not inhibit”. Also, the “effect on platelet aggregation induced by collagen” value with Platelet-rich plasma (collagen at low concentrations, 1 min preincubation) is “inhibits”.

(Values after article PMC9662162 (Insect biochemistry and molecular biology, 2022).)
